One assay concerns the target T1, uterine OT receptors (Rattus norvegicus, UniProt P70536).
T1 construct: from tissue; host or cells: uterus of DES-treated rats, crude membranes
T1 sequence (P70536 1-388): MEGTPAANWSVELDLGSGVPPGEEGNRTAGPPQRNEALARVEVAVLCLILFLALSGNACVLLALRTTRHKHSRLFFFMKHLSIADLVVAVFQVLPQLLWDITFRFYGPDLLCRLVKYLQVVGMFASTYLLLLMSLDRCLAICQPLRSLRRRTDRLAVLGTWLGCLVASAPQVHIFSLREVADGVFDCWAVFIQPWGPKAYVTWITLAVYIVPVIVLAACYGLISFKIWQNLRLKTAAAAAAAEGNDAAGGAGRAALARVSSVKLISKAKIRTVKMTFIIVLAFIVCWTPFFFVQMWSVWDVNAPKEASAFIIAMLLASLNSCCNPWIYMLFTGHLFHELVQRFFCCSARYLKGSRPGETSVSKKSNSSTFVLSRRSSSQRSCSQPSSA
Briefly: [^3 H]OT binding to uterine OT receptors, crude membrane preparation of uteri from DES-treated rats. The conditions noted are these: for inhibition at 1 µM: @ 1,000 (nM). The protocol:
Competition studies were conducted at equilibrium (60 minutes; 22° C.) using 1 nM [^3 H]OT in the following assay buffer: 50 mM Tris-HCl, 5 mM MgCl2, and 0.1% BSA, pH 7.4.

The target of the next assay is T2, AVP-V1 sites (Rattus norvegicus, UniProt P30560).
T2 construct: crude membrane preparation of male rat liver (AVP-V1 sites); from tissue; host or cells: male rat liver, crude membranes
Description: [^3 H]AVP binding to crude membrane preparation of male rat liver (AVP-V1 sites). On the procedure:
(§1) Nonspecific binding (5-10% of the total binding) was determined using 10 μM unlabeled AVP, and the binding reaction was terminated by filtration as described above for the [^3 H]OT binding assay.

The target in another assay is T3, AVP-V2 sites (Rattus norvegicus, UniProt Q00788).
T3 construct: male rat liver (AVP-V1 sites) or kidney medulla (AVP-V2 sites); from tissue; host or cells: male rat kidney medulla, crude membranes
Description: [^3 H]AVP binding to crude membrane preparation of male rat kidney medulla (AVP-V2 sites). The protocol:
as §1

Where [1] appears, read: 1 h, read-out: [^3 H]OT: percent inhibition of radioligand at the given concentration.
Setting [2] is: rat uterus membranes, 1 nM [^3 H]OT, read-out: Receptor Binding Results IC50 (nM) [^3 H]OT.
Setting [3] is: Receptor Binding Results IC50 (nM) [^3 H]-AVP-V1.
The mark [4] stands for this setting: rat kidney medulla membranes, 2 nM [^3 H]AVP, read-out: Receptor Binding Results IC50 (nM) [^3 H]-AVP-V2.
The mark [5] stands for this setting: read-out: Receptor Binding Results IC50 (nM) [^3 H]-AVP-V1.

Counter-ions that a name gives are not always drawn. Like-named read-outs stand apart in the source and are kept apart here. Numbered stars: 1 amine (or outer) side, 2 acyl side, 3 side chain; on linkers, the order of the positions; unused ones are H or OH. Square brackets hold non-standard residues; d marks the D form. Peptide text beside a SMILES is read from it. * marks the point of attachment. X9 = O=C([C@@H]1CN(P(=O)(OCc2ccccc2)OCc2ccccc2)CCN1[*:1])[*:2]; dPip(4-aza,4-Cbz) = O=C(O)[C@H]1CN(C(=O)OCc2ccccc2)CCN1; X2 = O=C(OCc1ccccc1)N1CCN([*:1])[C@H](C(=O)[*:2])C1; X4 = O=C([C@@H](Cc1cn(COCc2ccccc2)cn1)N[*:1])[*:2]; NH(2-(imidazol-4-yl)ethyl) = c1ncc(CCN*)[nH]1; dPhe(4-NH2) = Nc1ccc(C[C@@H](N)C(=O)O)cc1; dPiz(1,6-dehydro) = O=C(O)[C@H]1CCC=NN1; dNMeH = CN[C@H](Cc1c[nH]cn1)C(=O)O; X1 = O=C([C@H]1C=CCCN1[*:1])[*:2]; NMeI = CC[C@H](C)[C@H](NC)C(=O)O; Pip(4-aza) = O=C(O)[C@@H]1CNCCN1; dNMeF = CN[C@H](Cc1ccccc1)C(=O)O; Pip = O=C(O)[C@@H]1CCCCN1; dPip = O=C(O)[C@H]1CCCCN1; Nle = CCCC[C@H](N)C(=O)O; Orn = NCCC[C@H](N)C(=O)O; Dap = NC[C@H](N)C(=O)O; Boc = CC(C)(C)OC(=O)*

T2 sequence (P30560 whole entry): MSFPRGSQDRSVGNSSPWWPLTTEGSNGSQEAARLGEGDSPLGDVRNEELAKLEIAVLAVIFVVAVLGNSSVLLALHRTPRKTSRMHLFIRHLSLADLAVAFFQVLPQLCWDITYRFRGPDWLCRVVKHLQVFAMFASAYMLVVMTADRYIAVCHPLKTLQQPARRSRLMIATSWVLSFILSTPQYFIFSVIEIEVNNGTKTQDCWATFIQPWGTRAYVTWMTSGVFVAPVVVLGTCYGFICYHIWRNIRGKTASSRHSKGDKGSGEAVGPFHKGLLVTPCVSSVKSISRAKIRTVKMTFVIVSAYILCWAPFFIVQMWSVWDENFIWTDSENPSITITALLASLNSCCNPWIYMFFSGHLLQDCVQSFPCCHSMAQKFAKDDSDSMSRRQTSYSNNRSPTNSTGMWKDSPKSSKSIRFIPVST
T3 sequence (Q00788 whole entry): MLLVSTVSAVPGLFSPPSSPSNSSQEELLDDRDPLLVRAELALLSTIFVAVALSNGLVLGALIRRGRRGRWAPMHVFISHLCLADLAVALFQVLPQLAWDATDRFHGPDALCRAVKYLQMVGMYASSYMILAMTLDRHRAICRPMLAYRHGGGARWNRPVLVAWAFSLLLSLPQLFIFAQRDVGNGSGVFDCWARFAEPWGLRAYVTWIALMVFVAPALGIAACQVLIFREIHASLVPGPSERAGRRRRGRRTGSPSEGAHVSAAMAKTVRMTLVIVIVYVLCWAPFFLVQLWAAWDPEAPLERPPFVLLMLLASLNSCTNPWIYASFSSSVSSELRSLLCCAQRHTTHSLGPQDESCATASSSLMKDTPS

Consider `CC[C@H](C)[C@@H]1NC(=O)[C@@H](Cc2c[nH]c3ccccc23)NC(=O)[C@@H]2CCCN2C(=O)[C@@H](Cc2ccccc2)N(C)C(=O)[C@@H]2CN(P(=O)(OCc3ccccc3)OCc3ccccc3)CCN2C(=O)[C@H]2CCCCN2C1=O` [Example 183, c-[D-Tryptophanyl-L-isoleucinyl-D-pipecolyl-L-piperazin-2-yl(4-dibenzylphosphoramidyl)-D-(N^α -Me)phenylalanyl-L-prolyl]] (cyclo(I[dPip][X9][dNMeF]P[dW])), for which, on uterine OT receptors (setting [1]), the inhibition at 0.1 µM came to 58%. The IC50 on AVP-V1 sites (Receptor Binding Results IC50 (nM) [^3 H]-AVP-V1, rat liver membranes, 1 nM [^3 H]AVP) is over 10000 nM. In addition, on AVP-V2 sites (0.5 h, read-out: [^3 H]-AVP-V2: percent inhibition of radioligand at the given concentration), the inhibition at 10 µM is 71%.

Regarding `CC[C@H](C)[C@@H]1NC(=O)[C@@H](Cc2ccccc2)NC(=O)[C@@H]2CCCN2C(=O)[C@@H](Cc2ccc(N)cc2)NC(=O)[C@@H]2CCCCN2C(=O)[C@H]2CCCCN2C1=O` [Example 48, Cyclo[D-phenylalanyl-L-isoleucyl-D-pipecolyl-L-pipecolyl-D-(p-amino)phenylalanyl-L-prolyl]] (cyclo(I[dPip][Pip][dPhe(4-NH2)]P[dF])), the IC50 was 250 nM on uterine OT receptors (setting [2]), 10000 nM on AVP-V1 sites (setting [3]) and over 10000 nM at AVP-V2 sites (setting [4]).

`CC[C@H](C)[C@@H]1NC(=O)[C@@H](Cc2c[nH]c3ccccc23)NC(=O)[C@@H]2CCCN2C(=O)[C@@H](Cc2c[nH]cn2)N(C)C(=O)[C@@H]2CCCCN2C(=O)[C@H]2CCCCN2C1=O` [Example 19, Cyclo[D-tryptophanyl-L-isoleucyl-D-pipecolyl-L-pipecolyl-D-(N^α methyl)histidyl-L-prolyl]] (cyclo(I[dPip][Pip][dNMeH]P[dW])): the results for the IC50 at uterine OT receptors (setting [2]), at AVP-V1 sites (setting [5]) and at AVP-V2 sites (setting [4]) were 18 nM, 13700 nM and 4330 nM, respectively.

In the case of `CC[C@H](C)[C@@H]1NC(=O)[C@@H](Cc2ccccc2)NC(=O)[C@@H]2CCCN2C(=O)[C@@H](Cc2ccccc2)N(C)C(=O)[C@H](CCCN)NC(=O)[C@H]2CCC=NN2C1=O` [Example 125, c-[D-Phenylalanyl-L-isoleucyl-D-Δ-piperazyl-L-ornithyl-D-(N-methyl)phenylalanyl-L-prolyl] acetate salt] (cyclo(I[dPiz(1,6-dehydro)][Orn][dNMeF]P[dF])), the IC50 turned out to be 16 nM on uterine OT receptors (setting [2]), 810 nM on AVP-V1 sites (setting [5]) and 1600 nM at AVP-V2 sites (setting [4]).

As for `CC[C@H](C)[C@@H]1NC(=O)[C@@H](Cc2ccccc2)NC(=O)[C@@H]2CCCN2C(=O)[C@@H](Cc2ccccc2)N(C)C(=O)[C@H](CCCCNC(=O)OC(C)(C)C)NC(=O)[C@H]2CCC=NN2C1=O` [Example 173, C-[D-Phenylalanyl-L-isoleucyl-D-Δ-piperazyl-L-(N^ε -t-Butyloxycarbonyl)-Lysl-M-Me-D-phenylalanyl-L-prolyl]] (cyclo(I[dPiz(1,6-dehydro)]K(Boc)[dNMeF]P[dF])), the IC50 on uterine OT receptors (setting [2]) is 71 nM; at AVP-V1 sites (setting [5]) it was 1500 nM; at AVP-V2 sites (read-out: Receptor Binding Results IC50 (nM) [^3 H]-AVP-V2), 2800 nM.

Consider `CC[C@H](C)[C@H]1C(=O)N2CCCC[C@@H]2C(=O)N2CCCC[C@H]2C(=O)N(C)[C@H](Cc2ccccc2)C(=O)N2CCC[C@H]2C(=O)N(C)[C@H](Cc2ccccc2)C(=O)N1C` [Example 15, C-[D-(N^α methyl)phenylalanyl-L-(N^α methyl)isoleucyl-D-pipecolyl-L-pipecolyl-D-(N^α methyl)phenylalanyl-L-prolyl]] (cyclo([NMeI][dPip][Pip][dNMeF]P[dNMeF])), for which the IC50 at uterine OT receptors (setting [2]), on AVP-V1 sites (setting [3]) and on AVP-V2 sites (setting [4]) was over 10000 nM each time.

Take `CC[C@H](C)[C@@H]1NC(=O)[C@@H](Cc2ccccc2)NC(=O)[C@@H]2CCCN2C(=O)[C@@H](Cc2ccccc2)N(C)C(=O)[C@H](CC(=O)NCCc2c[nH]cn2)NC(=O)[C@H]2CCCCN2C1=O` [Example 120, c-[D-Phenylalanyl-L-isoleucyl-D-pipecolyl-N^β -(imidazolylethyl)-L-asparagyl-N-methyl-D-phenylalanyl-L-prolyl]] (cyclo(D(NH(2-(imidazol-4-yl)ethyl))[dNMeF]P[dF]I[dPip])): the IC50 on uterine OT receptors (setting [2]) was found to be 120 nM; on AVP-V1 sites (setting [3]), 10000 nM; on AVP-V2 sites (setting [4]), 10000 nM.

On to `CC[C@H](C)[C@@H]1NC(=O)[C@@H](Cc2ccccc2)NC(=O)[C@@H]2CCCN2C(=O)[C@@H](Cc2ccccc2)N(C)C(=O)[C@@H]2CCCCN2C(=O)[C@H]2C=CCCN2C1=O` [Example 24, Cyclo[D-phenylanyl-L-isoleucyl-D-(3,4-dehydro)-pipecolyl-L-pipecolyl-D-(N^α methyl)phenyalanyl-L-prolyl]] (cyclo(I[X1][Pip][dNMeF]P[dF])), for which the results for the 50% inhibitory concentration (IC50) at uterine OT receptors (setting [2]), at AVP-V1 sites (setting [3]) and at AVP-V2 sites (setting [4]) were 640 nM, over 10000 nM and 10000 nM, respectively.

`CCCC[C@@H]1NC(=O)[C@@H](Cc2c[nH]c3ccccc23)NC(=O)[C@@H]2CCCN2C(=O)[C@@H](Cc2c[nH]cn2)NC(=O)[C@@H]2CCCCN2C(=O)[C@H]2CCCCN2C1=O` [Example 20, Cyclo[D-tryptophanyl-L-Norleucyl-D-pipecolyl-L-pipecolyl-D-histidyl-L-prolyl]] (cyclo([Nle][dPip][Pip][dH]P[dW])): the IC50 at uterine OT receptors (setting [2]) was 72 nM; on AVP-V1 sites (setting [3]), over 1000 nM; on AVP-V2 sites (Receptor Binding Results IC50 (nM) [^3 H]-AVP-V2), over 1000 nM.

With `CC[C@H](C)[C@@H]1NC(=O)[C@@H](Cc2ccccc2)NC(=O)[C@@H]2CCCN2C(=O)[C@@H](Cc2ccccc2)N(C)C(=O)[C@@H]2CN(C(=O)OCc3ccccc3)CCN2C(=O)[C@H]2CN(C(=O)OCc3ccccc3)CCN2C1=O` [Example 86, c-[D-Phenylalanyl-L-isoleucinyl-D-piperazin-2-yl(4-Cbz)-L-piperazin-2-yl(4-Cbz)-D-(N^α -methyl)phenylalanyl-L-prolyl]] (cyclo(I[dPip(4-aza,4-Cbz)][X2][dNMeF]P[dF])), the inhibition at 1 µM on uterine OT receptors (setting [1]) came out at 58%. Moreover, the IC50 at AVP-V1 sites (setting [3]) and on AVP-V2 sites (setting [4]) was over 10000 nM each time.

Regarding `CC[C@H](C)[C@@H]1NC(=O)[C@@H](Cc2ccccc2)NC(=O)[C@@H]2CCCN2C(=O)[C@@H](Cc2ccccc2)N(C)C(=O)[C@H](CC(N)=O)NC(=O)[C@H]2CCCCN2C1=O` [Example 118, c-[D-Phenylalanyl-L-isoleucyl-D-pipecolyl-L-asparagyl-N-methyl-D-phenylalanyl-L-prolyl]] (cyclo(I[dPip]N[dNMeF]P[dF])), the IC50 at uterine OT receptors (setting [2]) is 345 nM; on AVP-V1 sites (setting [3]) it was over 10000 nM; at AVP-V2 sites (setting [4]), 10000 nM.

On to `CC[C@H](C)[C@@H]1NC(=O)[C@@H](Cc2ccccc2)NC(=O)[C@@H]2CCCN2C(=O)[C@@H](Cc2cn(COCc3ccccc3)cn2)NC(=O)[C@@H]2CNCCN2C(=O)[C@H]2CCCCN2C1=O` [Example 176, c-[D-Phenylalanyl-L-isoleucinyl-D-pipecolyl-L-piperazin-2-yl-D-histidinyl(BOM)-L-prolyl]] (cyclo([dF]I[dPip][Pip(4-aza)][X4]P)), for which the inhibition at 1 µM at uterine OT receptors (setting [1]) is 80%. This compound also showed an IC50 at AVP-V1 sites (setting [3]) of 10000 nM. Also, the inhibition at 10 µM at AVP-V2 sites (0.5 h, @ 10,000 (nM), read-out: [^3 H]-AVP-V2: percent inhibition of radioligand at the given concentration) came to 81%.

As for `CC[C@H](C)[C@@H]1NC(=O)[C@@H](Cc2c[nH]c3ccccc23)NC(=O)[C@@H]2CCCN2C(=O)[C@@H](Cc2c[nH]cn2)NC(=O)[C@@H]2CCCCN2C(=O)[C@H]2CCCCN2C1=O` [Example 17, C-[D-tryptophanyl-L-isolelucyl-D-pipecolyl-L-pipecolyl-D-histidyl-L-prolyl]] (cyclo(I[dPip][Pip][dH]P[dW])), the IC50 at uterine OT receptors (Receptor Binding Results IC50 (nM) [^3 H]OT) was 14 nM; at AVP-V1 sites (setting [5]), 8200 nM; on AVP-V2 sites (setting [4]), 5400 nM.

For the compound `CC[C@H](C)[C@@H]1NC(=O)[C@@H](Cc2ccccc2)NC(=O)[C@@H]2CCCN2C(=O)[C@@H](Cc2ccccc2)N(C)C(=O)[C@H](CN)NC(=O)[C@H]2CCCCN2C1=O` [Example 121, c-[D-Phenylalanyl-L-isoleucyl-D-pipecolyl-L-2,3-diaminopropionyl-N-methyl-D-phenylalanyl-L-prolyl]] (cyclo([Dap][dNMeF]P[dF]I[dPip])), the half-inhibitory concentration (IC50) on uterine OT receptors (setting [2]) was 270 nM; at AVP-V1 sites (setting [3]), 10000 nM; on AVP-V2 sites (setting [4]), 10000 nM.

In the case of `CC[C@H](C)[C@@H]1NC(=O)[C@@H](Cc2ccc(OC)cc2)NC(=O)[C@@H]2CCCN2C(=O)[C@@H](Cc2ccccc2)N(C)C(=O)[C@H](CCCCN)NC(=O)[C@H]2CCCCN2C1=O` [Example 150, c-[D-(O-Methyl)Tyrosyl-L-isoleucyl-D-pipecolyl-L-lysyl-D-(N-methyl)phenylalanyl-L-prolyl]] (cyclo(I[dPip]K[dNMeF]P[dY](Me))), the results for the 50% inhibitory concentration (IC50) at uterine OT receptors (setting [2]) and on AVP-V1 sites (setting [3]) were 44 nM and 10000 nM, respectively. The inhibition at 1 µM at AVP-V2 sites (0.5 h, @ 1,000 (nM), read-out: [^3 H]-AVP-V2: percent inhibition of radioligand at the given concentration) is 62%.

Broadly, the IC50 is the midpoint of a concentration-inhibition curve.

The values above are taken from patent US5225528A, “Cyclic hexapeptide oxytocin antagonists” (priority 1990, dated 1993).
